A melting point compilation (Tetko et al.; mined from patent text by program, amines drawn as free bases though some values may be those of a salt)

Compound	melting point
COc1ccnc(CCc2nc3cc(-c4ccc(S(=O)(=O)N5CCc6cc(OC)c(OC)cc6C5)cc4)cnc3[nH]2)c1	207 to 208 °C
COc1cc(C)ccc1S(=O)(=O)OCC(=O)c1ccccc1	89 °C
O=C(CCCCCCCCCCC(=O)Oc1cc(O)cc(O)c1)Oc1cc(O)cc(O)c1	140 to 145 °C
c1ccc(C(c2ccc3cccnc3c2)n2ccnc2)cc1 (configuration not stated)	111 °C
Cc1ccc(NC(=O)N(C)C(c2cnc(C(F)F)nc2Cl)C(C)C)cc1 (configuration not stated)	135 to 137 °C
O=C(CNC(=O)c1ccc(N2CCN(C(=O)c3ccccc3C(F)(F)F)CC2)nn1)c1ccccc1	196 to 198 °C
O=C(Nc1cc(NC(=O)C2CCCCC2)cc(NC(=O)C2CCCCC2)c1)C1CCCCC1	286 °C
CC(C)(CNCCCCCCNCC(C)(C)[N+](=O)[O-])[N+](=O)[O-]	26 to 27 °C
CCc1c(C(=O)O)ccc(OC)c1C	180 °C
CCCCCCCCc1ccc(CCC(CO)(CO)NC(C)=O)cc1	66 to 68 °C
CCOC(=O)c1ccc2c(c1)C(=CCCI)CN2	81 °C
O=C(COCc1cc(Br)cc2[nH]c(=O)c(=O)[nH]c12)Nc1ccccc1	> 250 °C
CCCc1c(OCCCCCOc2cccc(NC(=O)C(=O)O)c2)ccc(C(C)=O)c1O	117 to 118 °C
O=[N+]([O-])c1cnc2ccc(SC(c3ccccc3)(c3ccccc3)c3ccccc3)nn12	168 to 170 °C
CCCCCc1ccc(-c2ncc([C@H]3CC[C@H](CCC)CC3)cn2)cc1	93.5 °C
CCOC(=O)c1cnn(-c2cccc(Cl)c2)c1Cl	61 to 63 °C
Cc1nc(-c2ccccc2)nc(-c2ccncc2)c1NC(=O)OC(C)(C)C	166 to 167 °C
O=C(NCc1ccccc1)Nc1nnc(-c2ccc(CN3CCCCCC3)s2)s1	232 to 233 °C
Cc1ccc(C2=NN=C(c3ccccc3Cl)N(C)N2)cc1	152 to 154 °C
COc1cc(C=CC(=O)c2ccc([N+](=O)[O-])cc2)cc(OC)c1	166 °C
Cc1ncc2n1-c1ccc(Cl)cc1C(c1ccccc1F)N(C)C2 (configuration not stated)	156 to 158 °C
CC(C)(C)OC(=O)N[C@@H]1CN(C2CCCCC2)c2ccccc2NC1=O	156 to 159 °C
C=C(C)C(=O)Oc1ccc(S(=O)(=O)N(C(=O)OC(C)(C)C)c2ccccc2)cc1	112 to 114 °C
NC(=O)N1C(=O)C(C(=O)c2cccs2)c2nc(Cl)ccc21 (configuration not stated)	222 to 224 °C

Compound	melting point
O=C(OC1C(OCCBr)OC(COCc2ccccc2)C(O)C1OC(=O)c1ccccc1)c1ccccc1 (configuration not stated)	78 to 80 °C
CC(=O)N(C)c1c(I)c(N)c(I)c(C(=O)N(C)C)c1I	235 to 240 °C
COc1ccc(O)c(C2C(=O)Nc3cccc(Br)c32)n1 (configuration not stated)	149 to 152 °C
O=C(O)CCNC(=O)NCC(CS)c1ccccc1 (configuration not stated)	88 to 90 °C
OCCN1CCC(=C2c3ccccc3Sc3ccc(Cl)cc32)CC1	178 to 180 °C
COc1ccc(Cc2nc3cccc(CCCO)c3o2)cc1OC	95 to 97 °C
COC(=O)C1CSc2ccc(Cl)cc2C1=O (configuration not stated)	64 to 67 °C
CS(=O)(=O)ON=C(Cl)c1ccc(Cl)c(Cl)c1	73 to 75 °C
COc1ccc(-n2nc(CO)c3c2CCC3)cc1	88 to 89 °C
Nc1cc(C(F)(F)F)ccc1-c1cc(Oc2ccc3cccnc3c2)ncn1	193 to 194 °C
CCc1nnc(-c2ccc(OC)cc2)c(-c2ccc(OC)cc2)n1	73 to 75.5 °C
Fc1ccc(-c2nnc(S)nc2-c2ccc(F)cc2)cc1	180 to 182 °C
CCCCCCc1sc(C(N)=O)c2c1-c1nn(C)cc1CC2	194 to 195 °C
CCN(C)N1CSC(=Cc2cc(C(C)(C)C)c(O)c(C(C)(C)C)c2)C1=O	134 to 135 °C
OC1CC(c2ccc(-c3ccc(OCc4ccc(Br)cc4)cc3)cc2)Cc2ccccc21 (configuration not stated)	178 °C
CC(C)Oc1cc(C(=O)O)n(Cc2ncc(C(F)(F)F)cc2Cl)n1	124 to 125 °C
CN1C(=O)CCC2CC(C3=NNC(=O)CC3CO)=CC=C21 (configuration not stated)	201 to 204 °C
CCn1ccc(=O)c2cnc(-c3ccc(O)cc3)nc21	320 to 324 °C
Cc1[nH]cnc1CSCCN=C(N)NCCNC(N)=NCCSCc1nc[nH]c1C	201 to 203 °C
CCCOc1cc(OC)c2c(c1)C(=O)c1cccc(OCCN(CC)CC)c1-2	127 to 129 °C
CC(C)(C)OC(=O)NCc1ccc(CC(=O)Nc2ccc(Nc3cc(-c4cccc5c4oc4ccccc45)ncn3)cc2)cc1	238 to 240 °C
Oc1cccc(CN2CCCCC2c2nc(-c3ccccc3)c(-c3ccccc3)o2)c1 (configuration not stated)	205 to 208 °C
CCOC(=O)C1=C(C)Nc2n[nH]cc2C1c1ccccc1OC (configuration not stated)	196 to 200 °C
CC(C)(C)c1ccc2[nH]c(C(=O)c3ccc(Cl)cc3)c(CC(=O)O)c2c1	171 °C

Compound	melting point
CCCC(CCNC(=O)C(C#N)=Cc1ccc(O)c(O)c1)NC(=O)C(C#N)=Cc1ccc(O)c(O)c1 (configuration not stated)	263 °C
Cc1cccc(-c2nc(N)sc2-c2ccnc(-c3ccc(OC(F)(F)F)cc3)c2)n1	222 to 224 °C
COc1ccc(S(=O)(=O)Nc2cccc(Cl)c2/C=C/c2ccncc2)cc1	188 to 190 °C
CSc1nc(N2CCN(CCCCN3C(=O)CC4(CCCC4)CC3=O)CC2)ncc1F	83 to 85 °C
CN(C)C=NCc1ccc2c(c1)Nc1nccnc1S2	218 to 219 °C
O=C(Nc1ccc(OC(F)(F)F)cc1)NC1CCN(C(=O)C2CC2)CC1	195 to 196 °C
Cc1ccc(OCC(=O)O)c2c3c(C(N)=O)cccc3n(Cc3ccccc3)c12	253 to 254 °C
CCn1c(N)c(C(=O)NC)c(=O)c2ccc(C#CC(C)(C)OCC(N)=O)nc21	204 °C
O=C(Nc1nnc(Cc2ccc(Cl)cc2)s1)c1ccc2cccnc2c1O	276 to 278 °C
N=C(N)Nc1nc(CSCCC(N)=O)cs1	193 to 194 °C
Cc1ccc(-c2ccc3c(c2)C=C(C(=O)O)CC(C)O3)cc1 (configuration not stated)	224 to 225 °C
COc1ccc(OCc2ccc(=O)n(Cc3ccc(Cl)cc3)c2)cc1	114 °C
CC(C)(O)c1cccc(S(N)(=O)=O)c1	107 to 108 °C
N#CCc1cc(F)c(OCc2ccccc2)c(OCc2ccccc2)c1	120 to 121 °C
CCOC(=O)c1ccc(N2CCN(c3ccncc3)CC2)cc1	162 to 164 °C
Oc1ccc(CCc2cc(O)cc(O)c2)cc1	160 to 161 °C
CCC(O)c1ccc(Cc2c(Cl)cc(N3N=CCNC3=O)cc2Cl)cc1 (configuration not stated)	148 to 149 °C
COc1ccc(-c2nc(-c3ccc4oc(=O)[nH]c4c3)cs2)cc1OC	271 to 272 °C
CC1=C(C(=O)N(C)Cc2ccc(Cl)cc2Cl)SC2=NCCN21	55 to 60 °C
CCCCOC(Cl)C(=O)NCC1OC(C)C(C)O1 (configuration not stated)	28 °C
Cc1ccc(S(=O)(=O)NC(=O)C2C(=O)CC(c3ccccc3)CC2=O)cc1 (configuration not stated)	164 to 166 °C
Cc1cccc(NC(=O)NCC(=O)N2[C@@H](c3ccccc3F)SC[C@H]2C(=O)OC(C)(C)C)c1	107 °C
C=CCN1CCN(c2nc3cccccc-3n2)CC1	108 to 111 °C
CC(=O)OC1OCCC[C@@H]1NC(=O)[C@H](CC(C)C)NC(=O)OCc1ccccc1 (some centres not stated)	142 to 143 °C
